The target in one experiment is full-length human RORγt (Homo sapiens (Human), UniProt P51449). The experiment can be described thus: RORγt (full-length human) reporter assay, conditions A or B, HEK293T cells. Format: cell-based. As to conditions: for inhibition at […] / inhibition at 3 µM / inhibition at 1 µM: HEK-293T, read-out: RORγt (FL) Reporter Assay A or B, % inhibition; for IC50: RORγt (FL) Reporter Assay A or B, IC50, HEK293T cells; for inhibition at 3 µM: 3 μM compound concentration (footnote *); for inhibition at 1 µM: 1 μM compound concentration (footnote ***). In outline: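 Dual-luciferase read-out was taken after an overnight (16–20 h) compound exposure. Firefly data were scaled between DMSO-only and saturating reference compound, Renilla-normalized, then plotted against concentration for IC50.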
Sequence of full-length human RORγt (P51449 other isoform, or with tags, fused parts or gaps): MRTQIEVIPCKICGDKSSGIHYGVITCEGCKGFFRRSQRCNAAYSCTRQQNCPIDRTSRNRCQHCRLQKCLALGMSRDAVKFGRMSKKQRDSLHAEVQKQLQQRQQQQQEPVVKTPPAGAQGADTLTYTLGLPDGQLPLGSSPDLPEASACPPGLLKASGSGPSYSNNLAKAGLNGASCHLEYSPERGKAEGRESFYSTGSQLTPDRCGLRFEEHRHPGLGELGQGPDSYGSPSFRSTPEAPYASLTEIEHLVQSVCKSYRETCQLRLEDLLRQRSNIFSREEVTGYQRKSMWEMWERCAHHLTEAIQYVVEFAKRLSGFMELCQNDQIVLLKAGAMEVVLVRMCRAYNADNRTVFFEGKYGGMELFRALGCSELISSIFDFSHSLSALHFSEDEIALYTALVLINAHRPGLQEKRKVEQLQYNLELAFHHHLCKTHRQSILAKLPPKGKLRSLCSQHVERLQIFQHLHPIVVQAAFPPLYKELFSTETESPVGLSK
Background: In a reporter assay the amount or activity of a reporter protein is the signal.

The target of experiment [1] is human RORγt ligand binding domain (RORγt LBD) (Homo sapiens (Human), UniProt P51449). The experiment can be described thus: RORγt ThermoFluor® assay (thermal shift binding). As to conditions: ThermoFluor® Assay, Kd. The protocol: This approach is applicable to a wide variety of systems, and rigorous in theoretical interpretation through quantitation of equilibrium binding constants (KD).
Sequence of human RORγt ligand binding domain (RORγt LBD) (P51449 other isoform, or with tags, fused parts or gaps): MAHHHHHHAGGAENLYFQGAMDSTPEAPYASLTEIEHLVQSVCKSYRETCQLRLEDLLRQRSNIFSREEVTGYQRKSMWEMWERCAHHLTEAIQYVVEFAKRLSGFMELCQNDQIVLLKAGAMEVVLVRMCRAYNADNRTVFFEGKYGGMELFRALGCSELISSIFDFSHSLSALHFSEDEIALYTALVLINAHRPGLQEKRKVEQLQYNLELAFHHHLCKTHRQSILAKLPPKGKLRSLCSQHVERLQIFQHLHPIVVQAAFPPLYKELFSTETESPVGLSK
The shift in the melting point described as a ΔTm is proportional to the concentration and affinity of the ligand.
RORγt ThermoFluor® Assay Construct
Reference wells contained RORγt without compounds, and the assay conditions were as follows: • 0.065 mg/mL RORγt • 60 μM 1,8-ANS • 100 mM Hepes, pH 7.0 • 10 mM NaCl • 2.5 mM GSH • 0.002% Tween-20
Project compounds were arranged in a pre-dosed mother plate (Greiner Bio-one) wherein compounds are serially diluted in 100% DMSO by 1:2 from a high concentration of 10 mM over 12 columns within a series (column 12 is a reference well containing DMSO, no compound). The compounds were robotically dispensed directly into assay plates (1×=46 nL) using a Hummingbird capillary liquid handling instrument (Digilab). Following compound dispense, protein and dye in buffer was added to achieve the final assay volume of 3 μL, followed by 1 μL of silicone oil.
In general terms: Differential scanning fluorimetry follows unfolding on heating by fluorescence.

[2] abbreviates: 0.11 μM compound concentration (footnote ********).
[3] abbreviates: 0.33 μM compound concentration (footnote *****).

Experimental findings from patent US10975037B2 (priority 2018, dated 2021) are described below.

The structures appear in SMILES notation. Read-outs that look alike come from different tables or passages of the source.

The term inhibition denotes the drop in the measured response relative to a control, in per cent. As usually defined, the IC50 is the concentration needed to halve the response being measured. As usually defined, the Kd is the concentration at which binding is half-saturated. Take `CCn1nc(C(=O)NC[C@H]2CC[C@H](S(C)(=O)=O)CC2)c(Cl)c1-c1ccc(C[C@H](C)C(F)(F)F)cc1OC(F)F` (single isomer, unassigned) [Example 55, 4-Chloro-5-(2-(difluoromethoxy)-4-((S*)-3,3,3-trifluoro-2-methylpropyl)phenyl)-1-ethyl-N-(((1r,4S)-4-(methylsulfonyl)cyclohexyl)methyl)-1H-pyrazole-3-carboxamide]: on full-length human RORγt (setting [2]), the inhibition at […] came out at 94%. The molecule also yielded an IC50 at full-length human RORγt of 10 nM. The Kd in experiment [1] was determined as 0.35 nM.

`CCn1nc(C(=O)NC[C@]2(O)CC[C@@H](S(C)(=O)=O)CC2)c(Cl)c1-c1ccc(C[C@H](C)C(F)(F)F)cc1OC(F)F` (single isomer, unassigned) [Example 56, 4-Chloro-5-(2-(difluoromethoxy)-4-((S*)-3,3,3-trifluoro-2-methylpropyl)phenyl)-1-ethyl-N-(((1s,4R)-1-hydroxy-4-(methylsulfonyl)cyclohexyl)methyl)-1H-pyrazole-3-carboxamide]: the inhibition at […] at full-length human RORγt (setting [2]) turned out to be 94%. For the same molecule, the IC50 on full-length human RORγt is 8.7 nM. In addition, the Kd in experiment [1] stood at 1 nM.

Consider `CCn1nc(C(=O)NC[C@H]2CC[C@H](S(N)(=O)=O)CC2)c(C)c1-c1ccc(C[C@H](C)C(F)(F)F)cc1OC(F)F` (single isomer, unassigned) [Example 59, 5-(2-(difluoromethoxy)-4-((S*)-3,3,3-trifluoro-2-methylpropyl)phenyl)-1-ethyl-4-methyl-N-(((1r,4S)-4-sulfamoylcyclohexyl)methyl)-1H-pyrazole-3-carboxamide], for which the inhibition at […] at full-length human RORγt (setting [3]) is 93%. At full-length human RORγt, this molecule yielded an IC50 of 19 nM. Moreover, the Kd in experiment [1] was 1.2 nM.

For `CCn1nc(C(=O)NC[C@]2(O)CC[C@@H](S(N)(=O)=O)CC2)c(Cl)c1-c1ccc(C[C@H](C)C(F)(F)F)cc1OC(F)F` (single isomer, unassigned) [Example 60, 4-Chloro-5-(2-(difluoromethoxy)-4-((S*)-3,3,3-trifluoro-2-methylpropyl)phenyl)-1-ethyl-N-(((1s,4R)-1-hydroxy-4-sulfamoylcyclohexyl)methyl)-1H-pyrazole-3-carboxamide], on full-length human RORγt, the inhibition at 3 µM was found to be 114% and the IC50 is 38 nM. For the same molecule, in experiment [1], the Kd was determined as 1.9 nM.

For the molecule `CCn1nc(C(=O)NC[C@]2(O)CC[C@@H](S(N)(=O)=O)CC2)c(C)c1-c1ccc(C[C@H](C)C(F)(F)F)cc1OC(F)F` (single isomer, unassigned) [Example 61, 5-(2-(difluoromethoxy)-4-((S*)-3,3,3-trifluoro-2-methylpropyl)phenyl)-1-ethyl-N-(((1s,4R)-1-hydroxy-4-sulfamoylcyclohexyl)methyl)-4-methyl-1H-pyrazole-3-carboxamide], at full-length human RORγt, the inhibition at 1 µM was 130% and the midpoint of inhibition, the IC50, lay at 68 nM. The Kd in experiment [1] stood at 6.5 nM.

In the case of `CCn1nc(C(=O)NC[C@]2(O)CC[C@@H](S(C)(=O)=O)CC2)c(Cl)c1-c1ccc([C@@](C)(O)CC(F)(F)F)cc1OC(F)F` (single isomer, unassigned) [Example 99, 4-Chloro-5-(2-(difluoromethoxy)-4-((S*)-4,4,4-trifluoro-2-hydroxybutan-2-yl)phenyl)-1-ethyl-N-(((1s,4R)-1-hydroxy-4-(methylsulfonyl)cyclohexyl)methyl)-1H-pyrazole-3-carboxamide], at full-length human RORγt, the inhibition at 3 µM was -21% and half-maximal inhibition (IC50) was put at 2600 nM. In addition, the dissociation constant (Kd) in experiment [1] came to 230 nM.

In the case of `CCn1nc(C(=O)NC[C@]2(O)CC[C@@H](S(C)(=O)=O)CC2)c(Cl)c1-c1ccc([C@](C)(O)CC(F)(F)F)cc1OC(F)F` (single isomer, unassigned) [Example 100, 4-Chloro-5-(2-(difluoromethoxy)-4-((R*)-4,4,4-trifluoro-2-hydroxybutan-2-yl)phenyl)-1-ethyl-N-(((1s,4S)-1-hydroxy-4-(methylsulfonyl)cyclohexyl)methyl)-1H-pyrazole-3-carboxamide], at full-length human RORγt, the inhibition at 3 µM is 49% and it took 220 nM to reach half-maximal inhibition (IC50). Moreover, the Kd in experiment [1] was determined as 69 nM.

For `CCn1nc(C(=O)NC[C@]2(O)CC[C@@H](S(C)(=O)=O)CC2)c(Cl)c1-c1ccc(C2(O)CCC(C(F)(F)F)CC2)cc1OC(F)F` (single isomer, unassigned) [Example 112, 4-Chloro-5-(2-(difluoromethoxy)-4-((1s*,4s*)-1-hydroxy-4-(trifluoromethyl)cyclohexyl)phenyl)-1-ethyl-N-(((1s,4s)-1-hydroxy-4-(methylsulfonyl)cyclohexyl)methyl)-1H-pyrazole-3-carboxamide], on full-length human RORγt, the inhibition at 1 µM came out at 44% and the IC50 was greater than 1000 nM. In addition, the Kd in experiment [1] came out at 3000 nM.

Consider `CCn1nc(C(=O)NC[C@]2(O)CC[C@@H](S(C)(=O)=O)CC2)c(Cl)c1-c1ccc(C2(O)CCC(C(F)(F)F)CC2)cc1OC(F)F` (single isomer, unassigned) [Example 113, 4-Chloro-5-(2-(difluoromethoxy)-4-((1r*,4r*)-1-hydroxy-4-(trifluoromethyl)cyclohexyl)phenyl)-1-ethyl-N-(((1s,4s)-1-hydroxy-4-(methylsulfonyl)cyclohexyl)methyl)-1H-pyrazole-3-carboxamide], for which, at full-length human RORγt, the inhibition at 3 µM worked out at 88% and half-maximal inhibition (IC50) required 61 nM. In addition, the Kd in experiment [1] worked out at 120 nM.

For `CCn1nc(C(=O)NC[C@H]2CC[C@H](S(C)(=O)=O)CC2)c(Cl)c1-c1ccc(C2(O)CCC(C(F)(F)F)CC2)cc1OC(F)F` (single isomer, unassigned) [Example 114, 4-Chloro-5-(2-(difluoromethoxy)-4-((1s*,4s*)-1-hydroxy-4-(trifluoromethyl)cyclohexyl)phenyl)-1-ethyl-N-(((1r,4r)-4-(methylsulfonyl)cyclohexyl)methyl)-1H-pyrazole-3-carboxamide], at full-length human RORγt, the inhibition at 1 µM came out at 82% and half-maximal inhibition (IC50) was put at 410 nM. In experiment [1], the Kd was 980 nM.

In the case of `CCn1nc(C(=O)NC[C@H]2CC[C@H](S(C)(=O)=O)CC2)c(Cl)c1-c1ccc(C2(O)CCC(C(F)(F)F)CC2)cc1OC(F)F` (single isomer, unassigned) [Example 115, 4-Chloro-5-(2-(difluoromethoxy)-4-((1r*,4r*)-1-hydroxy-4-(trifluoromethyl)cyclohexyl)phenyl)-1-ethyl-N-(((1r,4r)-4-(methylsulfonyl)cyclohexyl)methyl)-1H-pyrazole-3-carboxamide], on full-length human RORγt, the inhibition at 3 µM stood at 89% and inhibition was half-maximal at 16 nM (IC50). Also, the Kd in experiment [1] came out at 32 nM.

As for `CCn1nc(C(=O)NC[C@H]2CC[C@H](S(C)(=O)=O)CC2)c(Cl)c1-c1ccc(C[C@@H](C)C(F)(F)F)cc1OC(F)F` (single isomer, unassigned) [Example 135, 4-Chloro-5-(2-(difluoromethoxy)-4-((R*)-3,3,3-trifluoro-2-methylpropyl)phenyl)-1-ethyl-N-(((1r,4R)-4-(methylsulfonyl)cyclohexyl)methyl)-1H-pyrazole-3-carboxamide], the inhibition at […] at full-length human RORγt (setting [3]) worked out at 83%. On full-length human RORγt, the IC50 is 11 nM. For the same molecule, the Kd in experiment [1] was determined as 0.46 nM.

For `CCn1nc(C(=O)NC[C@]2(O)CC[C@@H](S(C)(=O)=O)CC2)c(Cl)c1-c1ccc(C[C@@H](C)C(F)(F)F)cc1OC(F)F` (single isomer, unassigned) [Example 136, 4-Chloro-5-(2-(difluoromethoxy)-4-((R*)-3,3,3-trifluoro-2-methylpropyl)phenyl)-1-ethyl-N-(((1s,4S)-1-hydroxy-4-(methylsulfonyl)cyclohexyl)methyl)-1H-pyrazole-3-carboxamide], the inhibition at […] on full-length human RORγt (setting [3]) was 89%. The IC50 at full-length human RORγt came out at 3.6 nM. For the same molecule, the Kd in experiment [1] was 1.1 nM.

With `CCn1nc(C(=O)NC[C@H]2CC[C@H](S(N)(=O)=O)CC2)c(Cl)c1-c1ccc(C[C@@H](C)C(F)(F)F)cc1OC(F)F` (single isomer, unassigned) [Example 139, 4-Chloro-5-(2-(difluoromethoxy)-4-((R*)-3,3,3-trifluoro-2-methylpropyl)phenyl)-1-ethyl-N-(((1r,4R)-4-sulfamoylcyclohexyl)methyl)-1H-pyrazole-3-carboxamide], on full-length human RORγt, the inhibition at 1 µM was determined as 122% and it took 2.7 nM to reach half-maximal inhibition (IC50). The Kd in experiment [1] was 0.58 nM.

For the molecule `C[C@H](Cc1ccc(-c2c(Cl)c(C(=O)NC[C@]3(O)CC[C@@H](S(C)(=O)=O)CC3)nn2C)c(OC(F)F)c1)C(F)(F)F` (single isomer, unassigned) [Example 152, 4-Chloro-5-(2-(difluoromethoxy)-4-((R*)-3,3,3-trifluoro-2-methylpropyl)phenyl)-N-(((1s,4S)-1-hydroxy-4-(methylsulfonyl)cyclohexyl)methyl)-1-methyl-1H-pyrazole-3-carboxamide], the inhibition at […] at full-length human RORγt (setting [3]) was determined as 72%. 37 nM corresponded to half-maximal inhibition at full-length human RORγt (IC50). Moreover, the Kd in experiment [1] is 7.9 nM.
